According to patent US5387602A, “1.5-diphenyl-3-(N-hydroxycarbamoyloxyalkyl)pyrazoles” (Ortho Pharmaceutical Corporation, priority 1993, dated 1995):

These compounds were tested against T1, RBL-1 Cell Cyclooxygenase (Rattus norvegicus, UniProt Q63921) (assay: Procedure II: cyclooxygenase inhibition in disrupted RBL-1 cells (supernatant as enzyme source)). Details: not given.
T1 construct: the supernatant was saved as the source of enzymes; endogenous in cells; host or cells: RBL-1 (rat basophilic leukemia cells), 10,000×g supernatant of homogenate
T1 sequence (Q63921 27-602): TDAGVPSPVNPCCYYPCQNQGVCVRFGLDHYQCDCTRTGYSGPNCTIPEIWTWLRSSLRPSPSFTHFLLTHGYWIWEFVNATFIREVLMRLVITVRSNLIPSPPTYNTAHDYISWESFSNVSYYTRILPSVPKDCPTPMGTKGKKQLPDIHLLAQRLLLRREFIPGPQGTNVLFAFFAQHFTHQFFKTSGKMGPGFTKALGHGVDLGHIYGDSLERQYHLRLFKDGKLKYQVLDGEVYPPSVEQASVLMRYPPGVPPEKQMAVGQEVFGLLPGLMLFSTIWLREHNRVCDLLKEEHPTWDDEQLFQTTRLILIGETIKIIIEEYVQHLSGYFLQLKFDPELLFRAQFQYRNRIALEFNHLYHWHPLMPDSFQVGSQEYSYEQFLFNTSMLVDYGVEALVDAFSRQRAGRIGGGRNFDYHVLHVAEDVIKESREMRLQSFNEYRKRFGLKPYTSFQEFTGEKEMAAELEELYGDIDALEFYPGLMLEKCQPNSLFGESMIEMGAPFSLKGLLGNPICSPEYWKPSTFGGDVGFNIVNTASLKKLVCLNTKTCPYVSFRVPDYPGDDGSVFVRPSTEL
Format: biochemical
Experimental: RBL-1 Cell 5-Lipoxygenase and Cyclooxygenase
Rat basophilic leukemia cells (RBL-1; 5×10^7 viable cells/mL) were disrupted by homogenization on ice (four 20 sec bursts) with a Brinkman polytron. Complete cell breakage was verified microscopically. The homogenate was then centrifuged at 10,000×g for 48 minutes at 4° C. The pellet was discarded and the supernatant was saved as the source of enzymes. The supernatant was pre-incubated for five minutes at 37° C. in the presence of 2 mM of CaCl2 and compound or vehicle (1% DMSO). The conversion of AA into 5-LO products was initiated by adding 10 μL (50 μCi) of 1-^14 C-AA to each tube and incubated at 37° C. for 20 minutes. The reaction was stopped by adjusting the pH of each sample to 3 to 3.5 with 2M formic acid. Samples were extracted with three volumes of chloroform to isolate the products of 5-LO formed during the reaction. Fractions were dried under nitrogen, then resuspended in 40 μL of chloroform and spotted onto silica gel HL plates. The plates were developed in A-9 solvent. The dried plates were analyzed using a Bioscan Imaging TLC scanner to determine the percentage of radiolabelled AA converted to 5-HETE in each sample.
In the following tables, the superscripts indicate the number of experiments and, unless otherwise stated, the dose at which % inhibition is reported is 3 MPK.

SMILES	% INHIBITION CO (Procedure II)
COc1ccc(-n2nc(COC(=O)NO)cc2-c2ccc(Cl)cc2)cc1 [1-A]	34%
COc1ccc(-n2nc(COC(=O)N(C)O)cc2-c2ccc(Cl)cc2)cc1 [1-B]	52%
COc1ccc(-n2nc(COC(=O)N(O)C(C)C)cc2-c2ccc(Cl)cc2)cc1 [1-C]	80%
COc1ccc(-n2nc(COC(=O)NO)c(Br)c2-c2ccc(Cl)cc2)cc1 [1-D]	36%
COc1ccc(-n2nc(COC(=O)N(C)O)c(Br)c2-c2ccc(Cl)cc2)cc1 [1-E]	43%
COc1ccc(-n2nc(COC(=O)N(O)C(C)C)c(Br)c2-c2ccc(Cl)cc2)cc1 [1-F]	0%
COc1ccc(-n2nc(COC(=O)NO)c(Cl)c2-c2ccc(Cl)cc2)cc1 [1-G]	18%
COc1ccc(-n2nc(COC(=O)N(C)O)c(Cl)c2-c2ccc(Cl)cc2)cc1 [1-H]	41%
COc1ccc(-n2nc(COC(=O)N(O)C(C)C)c(Cl)c2-c2ccc(Cl)cc2)cc1 [1-I]	3%
COc1ccc(-n2nc(COC(=O)NO)cc2-c2ccc(C)cc2)cc1 [1-J]	87%

The next lines start with the values.

% INHIBITION CO (Procedure II)	SMILES
100%	COc1ccc(-n2nc(COC(=O)N(C)O)cc2-c2ccc(C)cc2)cc1 [1-K]
64%	COc1ccc(-n2nc(COC(=O)N(O)C(C)C)cc2-c2ccc(C)cc2)cc1 [1-L]
85%	COc1ccc(-n2nc(COC(=O)NO)c(Br)c2-c2ccc(C)cc2)cc1 [1-M]
100%	COc1ccc(-n2nc(COC(=O)N(C)O)c(Br)c2-c2ccc(C)cc2)cc1 [1-N]
82%	COc1ccc(-n2nc(COC(=O)N(O)C(C)C)c(Br)c2-c2ccc(C)cc2)cc1 [1-O]

Same assay, conditions: read-out: IC50 CO (Procedure II)

SMILES	IC50
COc1ccc(-n2nc(COC(=O)NO)cc2-c2ccc(Cl)cc2)cc1 [1-A]	180 nM
COc1ccc(-n2nc(COC(=O)N(C)O)cc2-c2ccc(Cl)cc2)cc1 [1-B]	1400 nM
COc1ccc(-n2nc(COC(=O)N(O)C(C)C)cc2-c2ccc(Cl)cc2)cc1 [1-C]	1100 nM
COc1ccc(-n2nc(COC(=O)NO)c(Br)c2-c2ccc(Cl)cc2)cc1 [1-D]	300 nM
COc1ccc(-n2nc(COC(=O)N(C)O)c(Br)c2-c2ccc(Cl)cc2)cc1 [1-E]	170 nM
COc1ccc(-n2nc(COC(=O)N(O)C(C)C)c(Br)c2-c2ccc(Cl)cc2)cc1 [1-F]	880 nM
COc1ccc(-n2nc(COC(=O)NO)c(Cl)c2-c2ccc(Cl)cc2)cc1 [1-G]	950 nM
COc1ccc(-n2nc(COC(=O)N(C)O)c(Cl)c2-c2ccc(Cl)cc2)cc1 [1-H]	220 nM
COc1ccc(-n2nc(COC(=O)N(O)C(C)C)c(Cl)c2-c2ccc(Cl)cc2)cc1 [1-I]	1630 nM
COc1ccc(-n2nc(COC(=O)NO)cc2-c2ccc(C)cc2)cc1 [1-J]	180 nM

The remaining lines, values ahead:

IC50	SMILES
150 nM	COc1ccc(-n2nc(COC(=O)N(C)O)cc2-c2ccc(C)cc2)cc1 [1-K]
1700 nM	COc1ccc(-n2nc(COC(=O)N(O)C(C)C)cc2-c2ccc(C)cc2)cc1 [1-L]
1460 nM	COc1ccc(-n2nc(COC(=O)NO)c(Br)c2-c2ccc(C)cc2)cc1 [1-M]
1140 nM	COc1ccc(-n2nc(COC(=O)N(C)O)c(Br)c2-c2ccc(C)cc2)cc1 [1-N]
3120 nM	COc1ccc(-n2nc(COC(=O)N(O)C(C)C)c(Br)c2-c2ccc(C)cc2)cc1 [1-O]

What follows are compounds tested against T2, Sheep Seminal Vesicle Cyclooxygenase (Ovis aries, UniProt P05979) (assay: Procedure I: sheep seminal vesicle (SSV) cyclooxygenase inhibition). Details: SSV CO.
T2 construct: purchased Biomol (Plymouth Meeting, Pa.); host or cells: sheep seminal vesicle
T2 sequence (P05979 25-600): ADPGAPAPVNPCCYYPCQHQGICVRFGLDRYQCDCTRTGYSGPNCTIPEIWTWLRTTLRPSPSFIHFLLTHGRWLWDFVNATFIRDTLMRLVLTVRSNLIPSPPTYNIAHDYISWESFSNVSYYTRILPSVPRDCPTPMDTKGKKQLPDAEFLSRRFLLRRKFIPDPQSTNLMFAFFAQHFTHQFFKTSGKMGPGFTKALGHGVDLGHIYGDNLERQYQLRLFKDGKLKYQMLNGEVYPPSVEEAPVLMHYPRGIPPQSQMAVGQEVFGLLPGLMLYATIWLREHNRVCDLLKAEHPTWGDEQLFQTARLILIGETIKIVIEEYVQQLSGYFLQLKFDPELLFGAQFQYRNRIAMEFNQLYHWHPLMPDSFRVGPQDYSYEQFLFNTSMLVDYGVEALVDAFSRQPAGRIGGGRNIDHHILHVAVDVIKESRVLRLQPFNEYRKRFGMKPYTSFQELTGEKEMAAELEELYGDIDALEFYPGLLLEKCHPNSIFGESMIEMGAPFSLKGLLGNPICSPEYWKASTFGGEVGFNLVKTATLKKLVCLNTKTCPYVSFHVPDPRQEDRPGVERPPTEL
Format: biochemical
Experimental: Sheep Seminal Vesicle Cyclooxygenase Sheep seminal vesicle (SSV) cyclooxygenase (95% pure, prostaglandin endoperoxide synthase, EC 1.14.99.1 specific activity 24 units/mg protein) obtained as a lyophilized powder from Biomol (Plymouth Meeting, Pa.) was reconstituted at a concentration of 59 mg/mL in Hanks' Balanced Salt Solution (HBSS). The enzyme was divided into 200 μL aliquots, snap frozen with liquid N2, and stored at -70° C. until immediately prior to use. Measurements of CO activity were carried out in polypropylene tubes containing 495 μL of HBSS to which was added 5 μL Of inhibitor or dimethylsulfoxide (DMSO; vehicle control) and 6 μL of SSV CO solution. The tubes were mixed on a vortex shaker, preincubated for 5 min at 37° C. prior to the initiation of the reaction. The reaction was started by the addition of [^14 C]-arachidonic acid (1-^14 C-AA, Amersham, Arlington Heights, Ill.) in 10 μL of methanol. Tubes were again vortexed and incubated in a water bath for 20 minutes after which the tubes were removed and the reaction stopped by acidification with the addition of 1 mL 2M formic acid. Lipophilic products were extracted with 3 mL chloroform and concentrated to dryness under N2. Each pellet was reconstituted with 40 μL of chloroform and spotted on a Whatman Silicon thin-layer chromatography plate and developed in a chromatography tank containing A-9 solvent (11:5:2:1 V:V:V:V, ethyl acetate:trimethyl-pentane:acetic acid:double distilled-H2 O). Radioactive cyclooxygenase products (prostaglandin D2, prostaglandin E2, etc.) were measured using a Bioscan System 200 Imaging Scanner. Inhibition of enzyme activity was calculated by comparing the areas under the curve produced in the presence or absence of test compound. In the following tables, the superscripts indicate the number of experiments and, unless otherwise stated, the dose at which % inhibition is reported is 3 MPK.

SMILES	IC50
COc1ccc(-n2nc(COC(=O)NO)cc2-c2ccc(Cl)cc2)cc1 [1-A]	2250 nM
COc1ccc(-n2nc(COC(=O)N(C)O)cc2-c2ccc(Cl)cc2)cc1 [1-B]	730 nM
COc1ccc(-n2nc(COC(=O)N(O)C(C)C)cc2-c2ccc(Cl)cc2)cc1 [1-C]	520 nM
COc1ccc(-n2nc(COC(=O)NO)c(Br)c2-c2ccc(Cl)cc2)cc1 [1-D]	3100 nM
COc1ccc(-n2nc(COC(=O)N(C)O)c(Br)c2-c2ccc(Cl)cc2)cc1 [1-E]	740 nM
COc1ccc(-n2nc(COC(=O)N(C)O)c(Cl)c2-c2ccc(Cl)cc2)cc1 [1-H]	1150 nM
COc1ccc(-n2nc(COC(=O)N(O)C(C)C)c(Cl)c2-c2ccc(Cl)cc2)cc1 [1-I]	5300 nM
COc1ccc(-n2nc(COC(=O)NO)cc2-c2ccc(C)cc2)cc1 [1-J]	730 nM

Further lines, results first:

IC50	SMILES
510 nM	COc1ccc(-n2nc(COC(=O)N(C)O)cc2-c2ccc(C)cc2)cc1 [1-K]
420 nM	COc1ccc(-n2nc(COC(=O)N(O)C(C)C)cc2-c2ccc(C)cc2)cc1 [1-L]
2310 nM	COc1ccc(-n2nc(COC(=O)NO)c(Br)c2-c2ccc(C)cc2)cc1 [1-M]
890 nM	COc1ccc(-n2nc(COC(=O)N(C)O)c(Br)c2-c2ccc(C)cc2)cc1 [1-N]
2660 nM	COc1ccc(-n2nc(COC(=O)N(O)C(C)C)c(Br)c2-c2ccc(C)cc2)cc1 [1-O]

Same assay, conditions: dose 3 MPK unless otherwise stated (so in the source)

SMILES	% INHIB. CO (Procedure I)
COc1ccc(-n2nc(COC(=O)NO)cc2-c2ccc(Cl)cc2)cc1 [1-A]	43%
COc1ccc(-n2nc(COC(=O)N(C)O)cc2-c2ccc(Cl)cc2)cc1 [1-B]	100%
COc1ccc(-n2nc(COC(=O)N(O)C(C)C)cc2-c2ccc(Cl)cc2)cc1 [1-C]	92%
COc1ccc(-n2nc(COC(=O)NO)c(Br)c2-c2ccc(Cl)cc2)cc1 [1-D]	43%
COc1ccc(-n2nc(COC(=O)N(C)O)c(Br)c2-c2ccc(Cl)cc2)cc1 [1-E]	100%
COc1ccc(-n2nc(COC(=O)N(O)C(C)C)c(Br)c2-c2ccc(Cl)cc2)cc1 [1-F]	44%
COc1ccc(-n2nc(COC(=O)NO)c(Cl)c2-c2ccc(Cl)cc2)cc1 [1-G]	28%
COc1ccc(-n2nc(COC(=O)N(C)O)c(Cl)c2-c2ccc(Cl)cc2)cc1 [1-H]	100%
COc1ccc(-n2nc(COC(=O)N(O)C(C)C)c(Cl)c2-c2ccc(Cl)cc2)cc1 [1-I]	18%
COc1ccc(-n2nc(COC(=O)NO)cc2-c2ccc(C)cc2)cc1 [1-J]	73%

The remaining lines, values ahead:

% INHIB. CO (Procedure I)	SMILES
100%	COc1ccc(-n2nc(COC(=O)N(C)O)cc2-c2ccc(C)cc2)cc1 [1-K]
100%	COc1ccc(-n2nc(COC(=O)N(O)C(C)C)cc2-c2ccc(C)cc2)cc1 [1-L]
75%	COc1ccc(-n2nc(COC(=O)NO)c(Br)c2-c2ccc(C)cc2)cc1 [1-M]
100%	COc1ccc(-n2nc(COC(=O)N(C)O)c(Br)c2-c2ccc(C)cc2)cc1 [1-N]
59%	COc1ccc(-n2nc(COC(=O)N(O)C(C)C)c(Br)c2-c2ccc(C)cc2)cc1 [1-O]
